The results in this text go back to patent publication US20240336640A1, “CALCIUM OXALATE CRYSTALLIZATION INHIBITORS FOR RENAL DISORDERS” (VIFOR (INTERNATIONAL) AG, priority 2018, published 2024).

The structures appear in SMILES notation. Counter-ions that a name gives are not always drawn. Some results are limits rather than exact numbers.

A short description of the experiment: CaOx crystallization inhibition assay in human urine, pH 6.2. Particulars: human urine pH 6.2, 1 mM sodium oxalate, 7 h, light microscopy. Here is the method: For comparison of the compounds' efficacy to inhibit calcium oxalate (CaOx) crystallization a simple in vitro assay in urine was used. In brief, human urine (pH 6.2) was mixed with compound, followed by the addition of 1 mM sodium oxalate inducing CaOx crystallization. After 7 hours of incubation at room temperature crystallization was measured by light microscopy, employing an automated image analysis to detect, classify and quantify the CaOx crystal types formed, namely CaOx monohydrate (COM) and CaOx dihydrate (COD).
Human urine was stored at −20° C. in 50 mL aliquots. After thawing, aliquots were centrifuged, filtered using a 0.45-μm syringe filter and pH set to 6.2. Oxalate concentrations of human urine samples were determined using the Oxalate Assay kit following the kit protocol, and found to be <100 μM for the samples used. Dilutions of sodium and compounds were prepared in Bis Tris buffer (50 mM, 150 mM NaCl, pH 6.2). Urine was mixed with compound in Eppendorf tubes, and subsequently sodium oxalate was added. The final assay mixture of 1 mL total volume contained 90% urine, 5% sodium oxalate (1 mM) and 5% compound dilution. Immediately upon sodium oxalate addition, the final assay mixture was vortexed and added to the imaging slide (8 well glass bottom chamber, ibidi). 400 μL per well were added and two wells for each sample were prepared. Crystallization was assessed after 7 h incubation at room temperature, using a Leica CTR6000 microscope (Leica Microsystems, Wetzlar, Germany) in brightfield mode. For visualization, images with a 40× objective were used. For quantification 2 wells/sample with five 20× objective images each were used. Without addition of sodium oxalate no crystallization was observed.
Quantification and classification of crystals was performed in Matlab (version R2016b or R2018b). In brief, crystals were segmented using edge detection and watershed algorithms and subsequently shape, intensity and texture features for each crystal were extracted. The extracted features served as input for a semi-supervised classification approach to distinguish COM (class 0), COD (class 1), not determined structures (class 2) and background noise (class 3). A cubic support vector machine (SVM) classifier was trained and subsequently used for classification of testing images.
All testing images were processed using the Batch Processing App. Efficacy of compounds to inhibit CaOx crystallization was compared by analysing the total area per field of view for each crystal type. The sum of the total area of the three crystal classes—COM, COD and unclassified, was normalized to the control within each experiment (N=3). Due to the inherent variability of the crystallization process itself, normalization within each experiment decreased the effect of inter-experimental variability.
With `COCCOCCO[C@@H]1C(OP(=O)(O)O)[C@H](OCCOCCOC)[C@@H](OP(=O)(O)O)C(OP(=O)(O)O)[C@H]1OP(=O)(O)O` (stereo partly drawn) [(OEG2)2-IP4], the “50% complete inhibition (<50% total area)” value (from here on “50% complete inhibition”) is greater than 100 µM, the “COM inhibition (<5% of total area)” value was greater than 100 µM and the “Complete inhibition (i.e <5% total area)” value was greater than 100 µM.
As to `O=C(O)CC(O)(CC(=O)O)C(=O)O` [Citrate, Trisodium citrate dihydrate], the “50% complete inhibition” value was greater than 100 µM, the “COM inhibition (<5% of total area)” value was greater than 100 µM and the “Complete inhibition (i.e <5% total area)” value was greater than 100 µM.
With `COCCOCCOCCOCCOCCOCCOCCOCCOCCOCCOCCO[C@@H]1[C@@H](OP(=O)(O)O)[C@H](OP(=O)(O)O)[C@@H](OP(=O)(O)O)[C@@H](OP(=O)(O)O)[C@H]1OP(=O)(O)O` [OEG11-IP5], the “50% complete inhibition” value is 11 µM, the “COM inhibition (<5% of total area)” value is 100 µM and the “Complete inhibition (i.e <5% total area)” value was greater than 100 µM.
Consider `O=P(O)(O)O[C@H]1[C@H](OP(=O)(O)O)[C@@H](OP(=O)(O)O)[C@H](OP(=O)(O)O)[C@@H](OP(=O)(O)O)[C@H]1OP(=O)(O)O` [IP6, inositol hexaphosphate], for which the “50% complete inhibition” value was found to be 30 µM, the “COM inhibition (<5% of total area)” value amounted to 3 µM and the “Complete inhibition (i.e <5% total area)” value is greater than 30 µM.
